Consider 27 substances from patent US8603966B2, “Amino acid-based compounds, their methods of use, and methods of screening” (The Administrators of the Tulane Educational Fund, priority 2009, dated 2013).

The subject of data set [1] is Chinese Hamster Ovary (CHO) cells. Briefly: Cell penetration by laser scanning confocal fluorescence microscopy. Format: cell-based. Conditions: for Cell Penetrating Half-time: SD ±10 min. The procedure:
(§1) Laser Scanning Confocal Fluorescence Microscopy: Some translocating peptides were synthesized and labeled with the fluorescent dye TAMRA on either their amino terminus (N-labeled) or on a C-terminal cysteine residue (C-labeled). Live Chinese Hamster Ovary (CHO) cells were used to assess the ability of the labeled peptides to translocate across living cell membrane into the cells without causing toxicity.
CHO cells were incubated with peptide that was labeled on a C-terminal cysteine residue with the red fluorescent dye TAMRA. Cells and labeled peptide were incubated for 10 minutes in minimal media at 37° C. Cells were then washed to remove labeled peptide from the solution. The minimal media was replaced and 1 μM NBD (7-nitrobenz-2-oxa-1,3-diazol-4-yl) labeled lyso-phosphatidylthanolamine was added to the cells to label the plasma membrane. Labeled peptide concentrations for the panels are: A) 0 μM, B) 2 μM, C) 5 μM, and D) 10 μM. The scale bar represents 50 μm.
Panels A-G of FIG. 6 show representative CFM images monitoring the translocation of a labeled peptide with SEQ ID NO. 04 (synthesized with all D-amino acids for the chiral amino acids) in 10 minute intervals. CHO cells were incubated with the TAMRA-labeled peptide in minimal media and monitored over time at 25° C. without washing. The incubation times for the panels are: A) 5 min., B) 15 min., C) 25 min., D) 35 min., E) 45 min., F) 55 min., and G) 65 min. […] The scale bar represents 50 μm.
(§2) In this experiment, the externally added labeled peptide has not been washed away so the solution itself is fluorescent due to added TAMRA-labeled peptide. The black silhouettes in Panel A show the location of cells; before labeled-peptide entry, there is no fluorescence inside the cells.
All labeled peptides tested are able to translocate across living cell membranes and carry the large polar dye molecule TAMRA with them into the cell. Cell penetration was assessed by measuring TAMRA intensity inside CHO cells during incubation with the peptides in Table 4 and comparing intensity inside the cells with the external solution. Incubations were done at either 25° C. or 37° C., at concentrations listed. The half-times for penetration were determined, as shown in Table 5; the half-times have standard deviations of ±10 min. Based on final intensities inside the cells, all labeled peptides tested have similar cell penetrating activity at concentrations tested and at the temperatures tested. Toxicity was determined using the same conditions (e.g., solution and temperature) and concentrations as the cell penetration experiments. Toxicity was assessed by imaging at least 100 cells and counting cells with altered cell morphology, loss of confluence, or loss of adherence to substrate. In some experiments, the non-membrane permeable DNA dye SYTOX green was used to assess membrane integrity. In most cases, no measurable increase in toxicity or membrane integrity over control samples was detectable; this is indicated by the <5% in Table 5.

Data set [2] in a line: High throughput screen: Tb3+/DPA leakage from liposomes. As to conditions: labeled peptide:lipid 1:300; % of Tb3+ released after 60 minutes vs Triton-X 100 solubilized control (100% leakage). The procedure:
(§3) High throughput screening: For high throughput screening, 100 mM lipid bilayer vesicles were prepared by extrusion in the presence of 50 mM Tb^3+/citrate and 10 mg/mL chymotrypsin. The external Tb^3+/citrate and chymotrypsin were removed by gel filtration. To make the screening solution, 50 μM dipicolinic acid (DPA) and 1 μM α 1-antitrypsin were added to the external medium. The lipid composition was about 90% palmitoyloleoylphostadidylcholine (POPC) and about 10% palmitoyloleoyl phostadidylglycerol (POPG).
(§4) The combinatorial labeled peptide library was screened to identify and measure properties of translocation and leakage (e.g., pore-formation). Beads from the synthesis were exposed to longwave UV to cleave the peptide from the resin. The reaction added an amine group to the labeled peptide at the site of cleavage, yielding a Gln residue. Beads were then separated into individual wells of a multiwell plate and the peptides were extracted into 5 μl of dry dimethylsulfoxide overnight. This cleaved approximately 0.75 nmol of labeled peptide from each bead, about half of the total labeled peptide on the bead. A chymotrypsin cleavage site was incorporated into the labeled peptides' design (FIG. 1) and when hydrolysis occurs the AMC fluorophore is released. The spectra of the free AMC fluorophore is red-shifted as compared to that of the peptide-AMC conjugate (FIG. 2). When a labeled peptide translocates, the chymotrypsin inside the vesicle catalyzes the hydrolysis of the peptide bond contributed by the AMC moiety (FIG. 3B). Translocation was monitored by the rate of accumulation of free AMC. In the case of leakage, interaction of the lanthanide metal terbium III (Tb^3+) with the aromatic chelator dipiccolinic acid (DPA) creates a complex that is fluorescent at low μM concentrations (FIG. 3A). By entrapping Tb^3+ and chymotrypsin inside the liposomes and then adding dipiccolinic acid and a chymotrypsin inhibitor to the external medium, a visual reporter system for translocation with and without membrane leakage was created that can detect as little as 5 pmol of labeled peptide.
(§5) To screen for solubility, the labeled peptide DMSO solution was diluted and incubated for 30 minutes before adding the screening solution. Free-AMC fluorescence was monitored at 450 nm emission (350 nm excitation) for 30 minutes and then the wells were read at 460 nm emission (280 nm excitation) for Tb^3+/DPA complex formation. Wells with the highest free AMC accumulation and/or Tb^3+/DPA fluorescence were sent to the Michigan State University Protein Core Facility for sequencing.
(§6) The screen was performed at a labeled peptide to lipid ratio of 1:300. […] In FIG. 4, the oval labeled “Leakage” indicates labeled peptides that show mostly leakage with a minimum of the relative rate of free AMC production. The oval labeled “Translocation” indicates labeled peptides that show a higher relative rate of free AMC production with a minimum of leakage. Roughly 24,000 beads were screened at 1:300 labeled peptide:lipid, a sequence coverage space of 90%. The labeled peptides indicating the highest translocation and highest % leakage were identified by Edman sequencing from the beads.
(§7) Free-AMC fluorescence was monitored at 450 nm emission (350 nm excitation) for 30 minutes and then the wells were read at 460 nm emission (280 nm excitation) for Tb^3+/DPA complex formation. Percent leakage is the % of Tb^3+ released from lipid vesicles after 60 minutes, compared to a Triton-X 100 detergent-solubilized control (100% leakage). […] Free AMC was determined in real time by monitoring the fluorescence of free AMC after vesicle addition using a BioTek Synergy II fluorescence plate reader. The two assays were performed on the same samples.

Data set [3] in a line: High throughput screen: translocation into liposomes (free AMC production by entrapped chymotrypsin). As to conditions: labeled peptide:lipid 1:300; rate divided by rate in chymotrypsin solution without inhibitor and liposomes. The procedure:
as §3, §4, §5, §6, §7

Data set [4] relates to Chinese Hamster Ovary (CHO) cells. In kind it is cell-based.
From the text: as §1, §2
All labeled peptides tested are able to translocate across living cell membranes and carry the large polar dye molecule TAMRA with them into the cell. Cell penetration was assessed by measuring TAMRA intensity inside CHO cells during incubation with the peptides in Table 4 and comparing intensity inside the cells with the external solution. Incubations were done at either 25° C. or 37° C., at concentrations listed. The half-times for penetration were determined, as shown in Table 5; the half-times have standard deviations of ±10 min. […] Toxicity was determined using the same conditions (e.g., solution and temperature) and concentrations as the cell penetration experiments. […]

No end group written: not given here.

As to “Arg-Arg-Ile-Leu-Leu-Gln-Leu-Leu-Arg-Gly-Gln-Phe (RRILLQLLRGQF; not fully specified (C-terminus); printed as Arg-Arg-Ile-Leu-Leu-Gln-Leu-Leu-Arg-Gly-Gln-Phe) [SEQ ID NO: 10 (C-labeled), peptide labeled with the dye TAMRA on a C-terminal cysteine]”, the “Cell Penetrating Half-time” value in data set [1] (25° C., 1.7-10 μM) came out at 15 min.
As for “Arg-Arg-Ile-Leu-Leu-Gln-Leu-Leu-Leu-Gly-Gln-Phe (RRILLQLLLGQF; not fully specified (C-terminus); printed as Arg-Arg-Ile-Leu-Leu-Gln-Leu-Leu-Leu-Gly-Gln-Phe) [SEQ ID NO: 15 (C-labeled), peptide labeled with the dye TAMRA on a C-terminal cysteine]”, in data set [1] (37° C., 1.7-5 μM), the “Cell Penetrating Half-time” value is less than 30 min.
“Arg-Lys-Gly-Leu-Leu-Gln-Leu-Leu-Leu-Gly-Gln-Phe (RKGLLQLLLGQF; not fully specified (C-terminus); printed as Arg-Lys-Gly-Leu-Leu-Gln-Leu-Leu-Leu-Gly-Gln-Phe) [SEQ ID NO: 18 (C- labeled), peptide labeled with the dye TAMRA on a C-terminal cysteine]”: the “Cell Penetrating Half-time” value in data set [1] (37° C., 1.7-5 μM) is less than 30 min.
On to PKILLFKLLGQF [SEQ ID NO: 12], for which, in data set [2], the “% Leakage” value is listed as 1.6%. Also, the “Relative Rate of Free AMC Production” value in data set [3] turned out to be 1.7.
For PKQLLRLLLGQF [SEQ ID NO: 20], the “% Leakage” value in data set [2] turned out to be 90%. For the same substance, the “Relative Rate of Free AMC Production” value in data set [3] was determined as 0.4.
The corresponding values for PLGYLFLLRGQF [SEQ ID NO: 05] are 6.0% and 1.9.
Take PLILLRLLRGQF [SEQ ID NO: 03]: the “% Leakage” value in data set [2] amounted to 1.7%. For the same substance, in data set [3], the “Relative Rate of Free AMC Production” value came to 2.1.
For the substance PLIYPFLRLGQF [SEQ ID NO: 09], in data set [2], the “% Leakage” value is listed as −0.2%. Moreover, the “Relative Rate of Free AMC Production” value in data set [3] amounted to 1.7.
Regarding PLRLLRLLRGQF [SEQ ID NO: 11], the “% Leakage” value in data set [2] was 5.2%. Moreover, the “Relative Rate of Free AMC Production” value in data set [3] stood at 2.0.
Take PLRLRFLLRGQF [SEQ ID NO: 07]: the “% Leakage” value in data set [2] is recorded as −4.5%. Besides, the “Relative Rate of Free AMC Production” value in data set [3] is recorded as 1.6.
Turning to PRILLRLLLGQF [SEQ ID NO: 16], in data set [2], the “% Leakage” value is 89%. Also, the “Relative Rate of Free AMC Production” value in data set [3] came to 1.0.
For PRIYLRLLLGQF [SEQ ID NO: 14], the “% Leakage” value in data set [2] is listed as 82%. Besides, in data set [3], the “Relative Rate of Free AMC Production” value is recorded as 1.1.
The corresponding values for PRKLLQLLLGQF [SEQ ID NO: 13] are 86% and 0.6.
Take “Pro-Leu-Ile-Leu-Leu-Arg-Leu-Leu-Arg-Gly-Gln-Phe (PLILLRLLRGQF; not fully specified (C-terminus); printed as Pro-Leu-Ile-Leu-Leu-Arg-Leu-Leu-Arg-Gly-Gln-Phe) [SEQ ID NO: 03 (C-labeled), peptide labeled with the dye TAMRA on a C-terminal cysteine]”: the “Cell Penetrating Half-time” value in data set [1] (37° C., 1.7-5 μM) is less than 30 min.
As to “Pro-Leu-Ile-Tyr-Leu-Arg-Leu-Leu-Arg-Gly-Gln-Phe”, in data set [1] (FIG. 6, 25° C., minimal media, without washing), the “half-time for cell entry” value was 20 to 30 min. The “time at which cell penetration occurs” value in data set [1] (FIG. 6, 25° C., without washing) was “within a few minutes”. Also, the “toxicity (shape and coherence of the cells)” value in data set [4] was “toxicity is minimal”.
For the substance “Pro-Leu-Ile-Tyr-Leu-Arg-Leu-Leu-Arg-Gly-Gln-Phe [SEQ ID NO: 04 (C-labeled)]”, the “Cell Penetrating Half-time” value in data set [1] (37° C., 1.7-10 μM) turned out to be 20 min.
As to “Pro-Leu-Ile-Tyr-Leu-Arg-Leu-Leu-Arg-Gly-Gln-Phe [SEQ ID NO: 04]”, the “% Leakage” value in data set [2] worked out at 2.8%. Besides, the “Relative Rate of Free AMC Production” value in data set [3] is on record as 2.3.
Regarding RKGLLQLLLGQF [SEQ ID NO: 18], the “% Leakage” value in data set [2] was found to be 92%. Besides, the “Relative Rate of Free AMC Production” value in data set [3] is given as 0.3.
The corresponding values for RKILLRLLRGQF [SEQ ID NO: 02] are −3.0% and 1.6.
On to RKRLLQLLLGQF [SEQ ID NO: 21], for which the “% Leakage” value in data set [2] amounted to 84%. For the same substance, the “Relative Rate of Free AMC Production” value in data set [3] was determined as 0.7.
Regarding RLILLFRRLGQF [SEQ ID NO: 06], the “% Leakage” value in data set [2] came out at 7.2%. Moreover, the “Relative Rate of Free AMC Production” value in data set [3] was 2.1.
RLILRQLLLGQF [SEQ ID NO: 19]: the “% Leakage” value in data set [2] is 102%. In addition, the “Relative Rate of Free AMC Production” value in data set [3] was found to be 1.6.
As for RLILRQLLRGQF [SEQ ID NO: 17], the “% Leakage” value in data set [2] turned out to be 115%. Further, in data set [3], the “Relative Rate of Free AMC Production” value was 1.6.
Consider RLIRLFLLRGQF [SEQ ID NO: 08], for which the “% Leakage” value in data set [2] is given as 5.0%. In addition, the “Relative Rate of Free AMC Production” value in data set [3] is listed as 2.1.
The corresponding values for RLIYLRLLRGQF [SEQ ID NO: 01] are 24% and 3.4.
The matching figures for RRILLQLLLGQF [SEQ ID NO: 15]: 105% and 0.0.
For RRILLQLLRGQF [SEQ ID NO: 10], the “% Leakage” value in data set [2] amounted to 26%. In addition, the “Relative Rate of Free AMC Production” value in data set [3] is 2.3.
